Source: the supplement of paper PMC10307832

Legend:
Assay in all cases: relative viability (nuclei count vs DMSO), 5 days (fraction); higher = more cells survive
[1] = compound: Cc1ccc(NC(=O)c2ccc(CN3CCN(C)CC3)cc2)cc1Nc1nccc(-c2cccnc2)n1 [Imatinib] + Cc1cc(Nc2cc(N3CCN(C)CC3)nc(Sc3ccc(NC(=O)C4CC4)cc3)n2)n[nH]1 [Tozasertib] (partner 0.1 µM)
Summary of the method: (§1)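 Cells from lung cancer lines were seeded into 1536-well plates and, one day later, dosed by pin tool. Treatments were either a single drug or a fixed dose of an anchor drug with five library-drug doses (not always all listed) in √10 steps. After 5 days, nuclei were stained in a one-step fixation (final 0.05% Triton X-100, 1% formaldehyde, 1 ug/ml Hoechst) and counted on 4× images, and relative viability is the treated-to-vehicle nuclei ratio, as the median of duplicate plates.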

[2] = compound: Cc1ccc(NC(=O)c2ccc(CN3CCN(C)CC3)cc2)cc1Nc1nccc(-c2cccnc2)n1 [Imatinib] + CS(=O)(=O)CCNCc1ccc(-c2ccc3ncnc(Nc4ccc(OCc5cccc(F)c5)c(Cl)c4)c3c2)o1 [Lapatinib] (partner 2 µM)
Summary of the method: as §1

[3] = compound: Cc1ccc(NC(=O)c2ccc(CN3CCN(C)CC3)cc2)cc1Nc1nccc(-c2cccnc2)n1 [Imatinib] + C[C@]1(O)C[C@@H](c2nc(-c3ccc4ccc(-c5ccccc5)nc4c3)c3c(N)nccn32)C1 [Linsitinib] (partner 1 µM)
Summary of the method: as §1

[4] = compound: Cc1ccc(NC(=O)c2ccc(CN3CCN(C)CC3)cc2)cc1Nc1nccc(-c2cccnc2)n1 [Imatinib] + Nc1ncn([C@H]2C[C@H](O)[C@@H](CO)O2)c(=O)n1 [Decitabine] (partner 2 µM)
Summary of the method: as §1

Row | Cell Line | relative viability ([1]; first compound 0.02 µM) | relative viability ([1]; first compound 0.06325 µM) | relative viability ([1]; first compound 0.2 µM) | relative viability ([1]; first compound 0.6325 µM) | relative viability ([1]; first compound 2 µM) | relative viability ([2]; first compound 0.02 µM) | relative viability ([2]; first compound 0.06325 µM) | relative viability ([2]; first compound 0.2 µM) | relative viability ([2]; first compound 0.6325 µM) | relative viability ([2]; first compound 2 µM) | relative viability ([3]; first compound 0.02 µM) | relative viability ([3]; first compound 0.06325 µM) | relative viability ([3]; first compound 0.2 µM) | relative viability ([3]; first compound 0.6325 µM) | relative viability ([3]; first compound 2 µM) | relative viability ([4]; first compound 0.02 µM) | relative viability ([4]; first compound 0.06325 µM) | relative viability ([4]; first compound 0.2 µM) | relative viability ([4]; first compound 0.6325 µM) | relative viability ([4]; first compound 2 µM)
1 | LU99A | 0.283 | 0.31 | 0.219 | 0.261 | 0.238 | 1.14 | 1.08 | 0.986 | 0.99 | 1.18 | 0.53 | 0.543 | 0.654 | 0.611 | 0.615 | 0.986 | 0.827 | 0.824 | 0.812 | 0.903
2 | NCI-H1755 | 0.612 | 0.585 | 0.592 | 0.609 | 0.516 | 1.14 | 0.994 | 1.06 | 0.997 | 1.02 | 1.05 | 1.08 |  | 0.979 | 0.994 | 0.689 | 0.693 | 0.702 | 0.708 | 0.69
3 | NCI-H1915 | 0.468 |  | 0.458 | 0.385 | 0.341 | 0.974 |  | 1.04 | 0.952 |  | 1.09 |  | 1.17 | 1.08 | 1.08 | 0.257 |  | 0.281 | 0.276 | 0.243
4 | HARA | 0.083 |  | 0.107 | 0.0993 | 0.101 | 0.629 | 0.996 | 0.83 | 0.748 | 0.781 | 1.16 | 0.906 | 1.05 | 0.994 | 0.969 | 0.584 | 0.518 | 0.503 | 0.473 | 0.579
5 | COR-L 105 | 0.365 | 0.364 | 0.359 | 0.317 | 0.311 | 0.398 | 0.361 | 0.351 | 0.368 | 0.385 | 1.08 | 1.14 | 1 | 1.02 | 0.978 | 0.709 | 0.694 | 0.675 | 0.563 | 0.655
6 | HCC-44 | 1.03 | 0.558 | 1.01 | 0.109 | 0.735 | 1.13 | 1.15 |  | 0.991 | 0.934 | 0.801 |  | 0.664 | 0.549 | 0.646 | 0.967 |  | 0.954 | 0.971 | 0.899
7 | SK-MES-1 | 0.994 | 1.02 | 1.13 | 0.906 | 0.821 | 0.496 | 0.512 | 0.505 | 0.471 | 0.494 | 1.07 | 1.19 | 1.23 | 1.06 | 1.19 | 0.379 | 0.412 | 0.413 | 0.417 | 0.334
8 | HCC-827 | 0.404 | 0.486 | 0.407 | 0.407 | 0.421 | 0.206 | 0.162 | 0.211 | 0.179 | 0.191 | 1.02 | 0.96 |  | 0.98 | 0.897 | 0.31 | 0.32 | 0.311 | 0.36 | 0.307
9 | NCI-H2087 | 0.247 |  | 0.206 | 0.202 | 0.183 | 1.06 | 0.654 | 1.21 | 1.05 |  | 1.09 | 1 | 1.07 | 0.991 | 0.85 | 0.291 |  | 0.251 | 0.283 | 
10 | NCI-H1666 | 0.622 | 0.623 | 0.603 | 0.665 | 0.574 | 0.679 | 0.811 | 0.565 | 0.748 | 0.844 | 0.718 | 0.849 |  | 0.986 | 0.857 | 0.699 | 0.716 | 0.779 | 0.796 | 0.727
11 | EMC-BAC-2 | 0.297 | 0.296 | 0.33 | 0.283 | 0.277 | 0.937 | 0.702 | 0.833 | 0.972 | 0.873 | 0.845 | 0.961 | 0.889 | 0.767 | 0.868 | 0.998 | 1.04 |  | 1.07 | 0.936
12 | NCI-H2405 | 0.7 |  | 0.767 | 0.671 | 0.609 | 1.05 |  | 1.1 | 0.961 | 1.15 | 1.05 |  | 0.869 | 0.762 | 0.956 | 0.707 | 0.636 | 0.848 | 0.724 | 0.722
13 | NCI-H460 | 0.445 | 0.576 | 0.417 | 0.0905 | 0.0547 | 1.41 | 0.872 | 1.36 | 1.17 | 1.09 | 1.11 |  | 0.964 | 0.801 | 1.02 | 0.603 | 0.333 | 0.63 | 0.511 | 0.575
14 | NCI-H3122 | 0.376 | 0.373 | 0.514 |  | 0.383 | 1.03 | 1.04 |  | 1.02 | 0.989 | 1 | 1.13 | 1.14 | 1.03 | 1.04 | 0.44 | 0.467 | 0.441 | 0.439 | 0.375
15 | LC-2-ad | 0.439 | 0.439 | 0.514 | 0.2 | 0.419 | 0.933 | 0.886 | 0.884 | 1.02 | 0.935 | 0.838 | 0.875 | 0.896 | 0.825 | 0.84 | 0.816 |  | 0.948 | 0.824 | 0.759
16 | NCI-H596 | 0.886 | 0.964 | 0.993 | 0.72 | 0.829 | 1.17 | 1.29 | 1.13 |  | 1.03 | 1.09 | 0.958 | 1.1 |  | 0.969 | 1.12 | 1.01 | 1.17 |  | 0.971
17 | HOP-62 | 0.431 |  | 0.356 | 0.353 | 0.326 | 1.03 |  | 0.999 | 0.935 | 0.991 | 1.12 |  |  | 0.953 | 0.857 | 0.199 |  | 0.25 | 0.232 | 0.211
